A value given as a limit tells only on which side of the number the result lay.

Experiment [1] deals with recombinant RORγ Ligand Binding Domain (LBD) protein (Homo sapiens (Human), UniProt P51449). Put plainly: Radio-Ligand RORγ Binding Assay (Assay 1). Particulars: competition with 25-hydroxy [26,27-3H]-cholesterol, SPA. The procedure, abridged:
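His-GST-fused RORγ ligand-binding domain (24 nM solution) competed between compounds and tritiated 25-hydroxycholesterol (8.6 nM solution), read by SPA after brief rt incubations in pH 7.4 HEPES/glycerol/detergent buffer. Four-parameter curve fitting gave IC50 at inflection, converted to Ki using radioligand concentration and KD.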

Experiment [2] has as its target full-length RORγt in Jurkat cells (Homo sapiens (Human), UniProt P51449). In words: RORγt 5×RORE Assay in Jurkat Cells (Assay 2). Format: cell-based. Particulars: 5×RORE Nanoluc luciferase reporter. For orientation: Reporter assays use an easily measured gene product as a stand-in for the process of interest.

Sequence of recombinant RORγ Ligand Binding Domain (LBD) protein (P51449 269-508): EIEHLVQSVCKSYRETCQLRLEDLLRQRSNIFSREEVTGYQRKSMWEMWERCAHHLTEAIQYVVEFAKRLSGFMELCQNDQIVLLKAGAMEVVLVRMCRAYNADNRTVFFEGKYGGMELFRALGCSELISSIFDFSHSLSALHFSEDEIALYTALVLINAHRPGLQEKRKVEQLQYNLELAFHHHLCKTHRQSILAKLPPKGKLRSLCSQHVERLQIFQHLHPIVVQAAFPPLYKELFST
Sequence of full-length RORγt in Jurkat cells (P51449 other isoform, or with tags, fused parts or gaps): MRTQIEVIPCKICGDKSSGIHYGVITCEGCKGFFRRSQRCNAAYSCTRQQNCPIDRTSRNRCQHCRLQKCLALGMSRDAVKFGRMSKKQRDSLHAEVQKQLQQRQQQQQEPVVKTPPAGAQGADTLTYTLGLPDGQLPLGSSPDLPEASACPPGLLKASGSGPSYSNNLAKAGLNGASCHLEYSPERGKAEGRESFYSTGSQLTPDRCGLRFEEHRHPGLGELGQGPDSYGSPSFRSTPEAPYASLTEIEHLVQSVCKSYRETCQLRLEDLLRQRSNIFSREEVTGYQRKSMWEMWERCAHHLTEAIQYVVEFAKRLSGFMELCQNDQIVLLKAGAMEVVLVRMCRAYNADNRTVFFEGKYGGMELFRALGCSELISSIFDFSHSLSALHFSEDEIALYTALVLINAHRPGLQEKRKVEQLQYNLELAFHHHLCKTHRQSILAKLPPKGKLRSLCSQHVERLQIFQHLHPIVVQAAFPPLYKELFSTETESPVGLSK

In the case of `CCS(=O)(=O)c1ccc(CNC(=O)c2ccc3c(c2)nc(CC(C)C)n3Cc2cccc3c2OC(F)(F)O3)cc1` [I-33, 1-((2,2-difluorobenzo[d][1,3]dioxol-4-yl)methyl)-N-(4-(ethylsulfonyl)benzyl)-2-isobutyl-1H-benzo[d]imidazole-5-carboxamide], the Ki (commonly the equilibrium dissociation constant of an inhibitor or competing ligand from its target) in experiment [1] was less than 100 nM. For the same compound, the IC50 (usually the point on the concentration scale where inhibition reaches its midpoint) in experiment [2] is less than 100 nM.
On to `CS(=O)(=O)c1ccc(CNC(=O)c2ccc3c(c2)nc(C2CC2)n3Cc2cccc3c2OC(F)(F)O3)cc1` [I-34, 2-cyclopropyl-1-((2,2-difluorobenzo[d][1,3]dioxol-4-yl)methyl)-N-(4-(methylsulfonyl)benzyl)-1H-benzo[d]imidazole-5-carboxamide], for which, in experiment [1], the Ki is less than 100 nM. Further, the IC50 in experiment [2] is less than 100 nM.
As to `CNS(=O)(=O)c1ccc(CNC(=O)c2ccc3c(c2)nc(C2CC2)n3Cc2cccc3c2OC(F)(F)O3)cc1` [I-35, 2-cyclopropyl-1-((2,2-difluorobenzo[d][1,3]dioxol-4-yl)methyl)-N-(4-(N-methylsulfamoyl)benzyl)-1H-benzo[d]imidazole-5-carboxamide], the Ki in experiment [1] is less than 100 nM. This compound yielded an IC50 in experiment [2] of less than 100 nM.
`CCS(=O)(=O)c1ccc(CNC(=O)c2ccc3c(c2)nc(C2CCC2)n3Cc2cccc3c2OC(F)(F)O3)cc1` [I-36, 2-cyclobutyl-1-((2,2-difluorobenzo[d][1,3]dioxol-4-yl)methyl)-N-(4-(ethylsulfonyl)benzyl)-1H-benzo[d]imidazole-5-carboxamide]: the Ki in experiment [1] was less than 100 nM. Also, the IC50 in experiment [2] is less than 100 nM.
For the compound `CCS(=O)(=O)c1ccc(CNC(=O)c2ccc3c(c2)nc(C(F)F)n3Cc2cccc3c2OC(F)(F)O3)cc1` [I-37, 1-((2,2-difluorobenzo[d][1,3]dioxol-4-yl)methyl)-2-(difluoromethyl)-N-(4-(ethylsulfonyl)benzyl)-1H-benzo[d]imidazole-5-carboxamide], the Ki in experiment [1] was less than 100 nM. The compound also returned an IC50 in experiment [2] of less than 100 nM.
On to `CCS(=O)(=O)c1ccc(CNC(=O)c2ccc3c(c2)nc(C(C)(F)F)n3Cc2cccc3c2OC(F)(F)O3)cc1` [I-38, 1-((2,2-difluorobenzo[d][1,3]dioxol-4-yl)methyl)-2-(1,1-difluoroethyl)-N-(4-(ethylsulfonyl)benzyl)-1H-benzo[d]imidazole-5-carboxamide], for which, in experiment [1], the Ki was less than 100 nM. In experiment [2], this compound had an IC50 of less than 100 nM.
For the compound `CCS(=O)(=O)c1ccc(CNC(=O)c2ccc3c(c2)nc([C@H]2CCCO2)n3Cc2cccc3c2OC(F)(F)O3)cc1` [I-39.1, (R)-1-((2,2-difluorobenzo[d][1,3]dioxol-4-yl)methyl)-N-(4-(ethylsulfonyl)benzyl)-2-(tetrahydrofuran-2-yl)-1H-benzo[d]imidazole-5-carboxamide], the Ki in experiment [1] was less than 100 nM. In experiment [2], this compound displayed an IC50 of less than 100 nM.
On to `CCS(=O)(=O)c1ccc(CNC(=O)c2ccc3c(c2)nc([C@@H]2CCCO2)n3Cc2cccc3c2OC(F)(F)O3)cc1` [I-39.2, (S)-1-((2,2-difluorobenzo[d][1,3]dioxol-4-yl)methyl)-N-(4-(ethylsulfonyl)benzyl)-2-(tetrahydrofuran-2-yl)-1H-benzo[d]imidazole-5-carboxamide], for which, in experiment [1], the Ki is less than 100 nM. The same compound gave an IC50 in experiment [2] of less than 100 nM.
In the case of `CS(=O)(=O)c1ccc(CNC(=O)c2ccc3c(c2)nc(C2(F)CC2)n3Cc2cccc3c2OC(F)(F)O3)cc1` [I-40, 1-((2,2-difluorobenzo[d][1,3]dioxol-4-yl)methyl)-2-(1-fluorocyclopropyl)-N-(4-(methylsulfonyl)benzyl)-1H-benzo[d]imidazole-5-carboxamide], the Ki in experiment [1] was less than 100 nM. In experiment [2], this compound displayed an IC50 of less than 100 nM.
In the case of `O=C(NCc1ccc(S(=O)(=O)CCO)cc1)c1ccc2c(c1)nc(C1(F)CC1)n2Cc1cccc2c1OC(F)(F)O2` [I-41, 1-((2,2-difluorobenzo[d][1,3]dioxol-4-yl)methyl)-2-(1-fluorocyclopropyl)-N-(4-((2-hydroxyethyl)sulfonyl)benzyl)-1H-benzo[d]imidazole-5-carboxamide], the Ki in experiment [1] is less than 100 nM. Further, the IC50 in experiment [2] was less than 100 nM.
